From publication PMC7616463, “Peptidic boronic acid Plasmodium falciparum SUB1 inhibitors with improved selectivity over human proteasome” (Journal of medicinal chemistry, 2024)

Legend:
[1] = biological target: T1, human 20S proteasome (H20S), chymotrypsin-like β5 activity (Homo sapiens, UniProt P20618+P28074); assay: Human 20S proteasome kinetic assay (chymotrypsin-like β5 activity); type: biochemical; conditions: purified human 20S proteasome, β5 activity, substrate LLVY-R110, fluorescence; duplicate; read-out: IC50, nM H20S inhibition
T1 construct: variant as stated: H20S
Description: The fluorescent Proteasome substrate LLVY-R110 (ex: 490 nm, Em:525 nm) (#MAK172, Sigma-Aldrich) was used to measure the chymotrypsin-like activity (β5) of the human 20S proteasome and was prepared according to the activity assay kit instructions. Cleavage of this peptide generated intense green fluorescence due to the R110 group and was monitored at 520-530 nm with excitation at 480-500 nm. The purified human 20S proteasome (BML-PW8720-0050, EnzoSciences), stored at 1mg/ml in 20 mM Tris-HCl pH 7.2, 1mM EDTA, 1mM DTT 1mM NaN3, 50% glycerol was diluted in TRIS-buffered saline (TBS, pH 7.4) to an intermediate concentration of 0.44 μM. […] The reactions were performed in white 96-well fluorescent microtiter-plate format (Nunc). The Substrate solution was added first (100 μl), followed by 1 μl of the inhibitor (50 μM intermediate stock) and 1 μl of the H20S proteasome at 0.44 μM. The IC50s were determined for a selection of potent PfSUB1 inhibitors. After sequential dilution of the inhibitors in 100% DMSO, 1 μl of each dilution was used in a 100 μl reaction containing the fluorescent substrate. The reaction was initiated by the addition of 1 μl of the 20S proteasome intermediate stock solution. The fluorescence increase was monitored using a SpectraMax M5e plate reader and SoftMax Pro-6.3 software Measure activity on a plate reader (ex: 490 nm, Em: 525 nm) with the photomultiplier tube (PMT) set to medium with readings every 3 min for one hour. All measurements were done in duplicate. The progress curves were plotted within GraphPad Prism 9.5.0.

[2] = biological target: T2, recombinant PfSUB1 (rPfSUB1) (Plasmodium falciparum, UniProt Q8I0V0); assay: PfSUB1 enzyme assay (recombinant PfSUB1, fluorogenic peptide substrate); type: biochemical; conditions: for IC50: rPfSUB1, substrate SERA4st1F-6R12 0.1 μM, 5 min preincubation, pH 8.2, fluorescence, duplicate, read-out: IC50, nM PfSUB1 inhibition; for inhibition of rPfSUB1 activity at 1 μM: 1 μM final concentration, typical of duplicate assays
T2 construct: made in house
Description: The proteolytic activity of rPfSUB1 was monitored by the cleavage of the fluorogenic peptidic substrate SERA4st1F-6R12 (Ac-[…]-OH) and has been described previously.[28] Briefly, chymotrypsin treated rPfSUB1 (expressed and purified as described before […] was stored at −80 °C as a 228 U/mL stock in 20 mM Tris−HCl pH 8.2, 150 mM NaCl, 10% glycerol, and diluted for use (1:500) in reaction buffer (20 mM Tris−HCl pH 8.2, 150 mM NaCl, 12 mM CaCl2, 25 mM CHAPS). Peptidic boronic acid inhibitors were dissolved in 100% DMSO at 20 mM, then further diluted in DMSO to generate stock solutions ranging from 500 to 0.01 μM and then used diluted 1:100 in the enzyme reactions. All reactions were performed in wells of white 96-well microwell plates (Nunc); 50 μL diluted rPfSUB1 was preincubated for 5 min with 1 μL each of the serially diluted boronic acid inhibitors, followed by addition of 50 μL substrate solution (0.1 μM final). Subsequent fluorescence increase was continuously monitored using a SpectraMax M5e plate reader and SoftMax Pro-6.3 software, with readings taken every 3 min for 60 min using excitation and emission values of 552 and 580 nm, respectively. […] All experiments were performed in duplicate.

T2 sequence (Q8I0V0 218-688): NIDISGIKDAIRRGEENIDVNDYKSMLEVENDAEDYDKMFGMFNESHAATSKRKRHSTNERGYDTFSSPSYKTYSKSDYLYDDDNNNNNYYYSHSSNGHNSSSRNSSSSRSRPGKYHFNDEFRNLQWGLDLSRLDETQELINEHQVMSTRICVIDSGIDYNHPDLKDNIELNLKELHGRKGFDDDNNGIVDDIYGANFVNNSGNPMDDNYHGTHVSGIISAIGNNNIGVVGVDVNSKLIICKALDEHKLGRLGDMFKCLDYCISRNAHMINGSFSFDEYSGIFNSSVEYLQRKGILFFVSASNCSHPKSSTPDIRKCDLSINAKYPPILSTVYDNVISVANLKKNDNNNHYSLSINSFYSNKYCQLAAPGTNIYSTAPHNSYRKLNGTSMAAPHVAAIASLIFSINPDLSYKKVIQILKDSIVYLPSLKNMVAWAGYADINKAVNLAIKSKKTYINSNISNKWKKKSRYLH

Row | Compound | IC50 [2] | further results
1 | CC(=O)N[C@H](C(=O)N[C@H](C(=O)NCC(=O)N[C@@H](C)B(O)O)[C@@H](C)O)C1CCCC1 [1b] |  | IC50 [1]: 35.4 ± 1.7 nM
2 | CC(=O)N[C@H](C(=O)N[C@H](C(=O)NCC(=O)N[C@@H](C)B(O)O)C(C)(C)C)C1CCCC1 [2a, ((2R,8S,11S)-8-(tert-butyl)-11-cyclopentyl-4,7,10,13-tetraoxo-3,6,9,12-tetraazatetradecan-2-yl)boronic acid] | 2.1 ± 0.1 nM | 
3 | CC(=O)N[C@H](C(=O)N[C@H](C(=O)NCC(=O)N[C@@H](C)B(O)O)c1ccccc1)C1CCCC1 [2b, ((2R,8S,11S)-11-cyclopentyl-4,7,10,13-tetraoxo-8-phenyl-3,6,9,12-tetraazatetradecan-2-yl)boronic acid] | 2.8 ± 0.1 nM | 
4 | CC(=O)N[C@H](C(=O)N[C@@H](CC1CCCC1)C(=O)NCC(=O)N[C@@H](C)B(O)O)C1CCCC1 [2c, ((2R,8S,11S)-11-cyclopentyl-8-(cyclopentylmethyl)-4,7,10,13-tetraoxo-3,6,9,12-tetra-azatetradecan-2-yl)boronic acid] | 7.5 ± 0.8 nM | 
5 | CC(=O)N[C@H](C(=O)N[C@@H](CC1CCCCC1)C(=O)NCC(=O)N[C@@H](C)B(O)O)C1CCCC1 [2d, ((2R,8S,11S)-8-(cyclohexylmethyl)-11-cyclopentyl-4,7,10,13-tetraoxo-3,6,9,12-tetra-azatetradecan-2-yl)boronic acid] | 6.7 ± 0.3 nM | 
6 | CC(=O)N[C@H](C(=O)N[C@@H](CC(C)(C)C)C(=O)NCC(=O)N[C@@H](C)B(O)O)C1CCCC1 [2e, ((2R,8S,11S)-11-cyclopentyl-8-neopentyl-4,7,10,13-tetraoxo-3,6,9,12-tetraazatetra-decan-2-yl)boronic acid] | 43.5 ± 2.7 nM | fold decreased PfSUB1 potency compared to homologue 2a ([2]; rPfSUB1 IC50 vs 2a): ~ 20 fold
7 | CC[C@H](C)[C@H](NC(=O)[C@@H](NC(C)=O)C1CCCC1)C(=O)NCC(=O)N[C@@H](C)B(O)O [2f, ((2R,8S,11S)-8-((S)-sec-butyl)-11-cyclopentyl-4,7,10,13-tetraoxo-3,6,9,12-tetraaza-tetradecan-2-yl)boronic acid] | 5.4 ± 0.1 nM | 
8 | CC(=O)N[C@H](C(=O)N[C@@H](CC(C)C)C(=O)NCC(=O)N[C@@H](C)B(O)O)C1CCCC1 [2g, ((2R,8S,11S)-11-cyclopentyl-8-isobutyl-4,7,10,13-tetraoxo-3,6,9,12-tetraazatetra-decan-2-yl)boronic acid] | 7.8 ± 0.1 nM | 
9 | CC(=O)N[C@H](C(=O)N[C@@H](Cc1ccccc1)C(=O)NCC(=O)N[C@@H](C)B(O)O)C1CCCC1 [2h, ((2R,8S,11S)-8-benzyl-11-cyclopentyl-4,7,10,13-tetraoxo-3,6,9,12-tetraazatetradecan-2-yl)boronic acid] | 6.9 ± 2.6 nM | 
10 | CC[C@H](C)[C@H](NC(=O)[C@@H](NC(=O)c1ccc2ccccc2n1)C1CCCC1)C(=O)NCC(=O)N[C@@H](C)B(O)O [3a, ((3S,6S,12R)-6-((S)-sec-butyl)-3-cyclopentyl-1,4,7,10-tetraoxo-1-(quinolin-2-yl)-2,5,8,11-tetraazatridecan-12-yl)boronic acid] | 9.5 ± 0.6 nM | IC50 [1]: 6 ± 0.5 nM
11 | CC[C@H](C)[C@H](NC(=O)[C@@H](NC(=O)c1cccc(-c2ccccc2)n1)C1CCCC1)C(=O)NCC(=O)N[C@@H](C)B(O)O [3b, ((3S,6S,12R)-6-((S)-sec-butyl)-3-cyclopentyl-1,4,7,10-tetraoxo-1-(6-phenylpyridin-2-yl)-2,5,8,11-tetraazatridecan-12-yl)boronic acid] | 9.3 ± 0.2 nM | IC50 [1]: 7 ± 0.1 nM
12 | CC[C@H](C)[C@H](NC(=O)[C@@H](NC(=O)c1cc(C)cc(C)c1)C1CCCC1)C(=O)NCC(=O)N[C@@H](C)B(O)O [3c, ((3S,6S,12R)-6-((S)-sec-butyl)-3-cyclopentyl-1-(3,5-dimethylphenyl)-1,4,7,10-tetra-oxo-2,5,8,11-tetraazatridecan-12-yl)boronic acid] | 6.9 ± 0.3 nM | 
13 | CC[C@H](C)[C@H](NC(=O)[C@@H](NC(=O)C(C)C)C1CCCC1)C(=O)NCC(=O)N[C@@H](C)B(O)O [3e, ((2R,8S,11S)-8-((S)-sec-butyl)-11-cyclopentyl-14-methyl-4,7,10,13-tetraoxo-3,6,9,12-tetraazapentadecan-2-yl)boronic acid] | 3.9 ± 0.3 nM | 
14 | CC[C@H](C)[C@H](NC(=O)[C@@H](NC(=O)C(C)(C)C)C1CCCC1)C(=O)NCC(=O)N[C@@H](C)B(O)O [3f, ((2R,8S,11S)-8-((S)-sec-butyl)-11-cyclopentyl-14,14-dimethyl-4,7,10,13-tetraoxo-3,6,9,12-tetraazapentadecan-2-yl)boronic acid] | 3.9 ± 0.3 nM | 
15 | CC[C@H](C)[C@H](NC(=O)[C@@H](NC(=O)C1CCC1)C1CCCC1)C(=O)NCC(=O)N[C@@H](C)B(O)O [3g, ((3S,6S,12R)-6-((S)-sec-butyl)-1-cyclobutyl-3-cyclopentyl-1,4,7,10-tetraoxo-2,5,8,11-tetraazatridecan-12-yl)boronic acid] | 2 ± 0.1 nM | 
16 | CC[C@H](C)[C@H](NC(=O)[C@@H](NS(=O)(=O)c1nccs1)C1CCCC1)C(=O)NCC(=O)N[C@@H](C)B(O)O [3h, ((R)-1-(2-((2S,3S)-2-((S)-2-cyclopentyl-2-(thiazole-2-sulfonamido)acetamido)-3-methylpentanamido)acetamido)ethyl)boronic acid] | 3.4 ± 0.3 nM | 
17 | CC[C@H](C)[C@H](NC(=O)[C@@H](NCc1ccccc1)C1CCCC1)C(=O)NCC(=O)N[C@@H](C)B(O)O [3i, ((3S,6S,12R)-6-((S)-sec-butyl)-3-cyclopentyl-4,7,10-trioxo-1-phenyl-2,5,8,11-tetra-azatridecan-12-yl)boronic acid] | 23.2 ± 0.3 nM | 
18 | CC[C@H](C)[C@H](NC(=O)[C@@H](NCc1ccccn1)C1CCCC1)C(=O)NCC(=O)N[C@@H](C)B(O)O [3j, ((3S,6S,12R)-6-((S)-sec-butyl)-3-cyclopentyl-4,7,10-trioxo-1-(pyridin-2-yl)-2,5,8,11-tetraazatridecan-12-yl)boronic acid] | 71 ± 6.8 nM | 
19 | CC[C@H](C)[C@H](NC(=O)[C@@H](NC(=O)c1ccc2ccccc2n1)C1CCCC1)C(=O)NCC(=O)N[C@H]1CCC(=O)OB1O [4a, N-((S)-1-cyclopentyl-2-(((2S,3S)-1-((2-(((R)-2-hydroxy-6-oxo-1,2-oxaborinan-3-yl)amino)-2-oxoethyl)amino)-3-methyl-1-oxopentan-2-yl)amino)-2-oxoethyl) quinoline-2-carboxamide] | 36.1 ± 2.4 nM | IC50 [1]: 410 ± 5 nM
20 | CC[C@H](C)[C@H](NC(=O)[C@@H](NC(=O)c1cccc(-c2ccccc2)n1)C1CCCC1)C(=O)NCC(=O)N[C@H]1CCC(=O)OB1O [4b, N-((S)-1-cyclopentyl-2-(((2S,3S)-1-((2-(((R)-2-hydroxy-6-oxo-1,2-oxaborinan-3-yl)amino)-2-oxoethyl)amino)-3-methyl-1-oxopentan-2-yl)amino)-2-oxoethyl)-6-phenylpicolinamide] | 13 ± 0.6 nM | IC50 [1]: 160 ± 10 nM
21 | CC(C)C[C@H](NC(=O)[C@H](Cc1ccccc1)NC(=O)c1cnccn1)B(O)O [5a, bortezomib, reference compound] |  | inhibition of rPfSUB1 activity at 1 μM [2]: Non inhibitory^b; inhibition of rPfSUB1 activity at 1 μM ([2]; listed as bortezomib): lack of inhibition
22 | CC(C)C[C@H](NC(=O)[C@H](CCc1ccccc1)NC(=O)CN1CCOCC1)C(=O)N[C@@H](Cc1ccccc1)C(=O)N[C@@H](CC(C)C)C(=O)[C@@]1(C)CO1 [carfilzomib, reference compound] |  | inhibition of rPfSUB1 activity at 1 μM [2]: lack of inhibition
23 | CC(C)C[C@H](NC(=O)CNC(=O)c1cc(Cl)ccc1Cl)B(O)O [ixazomib, reference compound] |  | inhibition of rPfSUB1 activity at 1 μM [2]: lack of inhibition
24 | ((3S,6S,12R)-6-((S)-sec-butyl)-3-cyclopentyl-1-(3,5-dimethylphenyl)-1,4,7,10-tetra-oxo-2,5,8,11-tetraazatridecan-12-yl)boronic acid [3d] | 3.2 ± 0.1 nM | 
